# Experimental data as given in article PMC6234229, “The role of loops B and C in determining the potentiation of GABAA receptors by midazolam” (Pharmacology Research & Perspectives, 2018).
# Key:
# Assay in all cases: Midazolam potentiation of EC10 GABA currents, whole-cell patch clamp, HEK293T
# Type in all cases: cell-based
# [1] = target: T1, α3β2γ2 GABAA receptor (Homo sapiens, UniProt P18507+P34903+P47870)
# T1 construct: expressed in transfected cells; host or cells: HEK293T
# Text: (§1) Human (Homo sapiens) GABAA subunits (α1‐6, β2, γ2s) were subcloned into pcDNA3.1+ vectors with a cytomegalovirus (CMV) promoter. The hβ2 and hα3 sequences were humanized rat (Rattus norvegicus) cDNA with amino acid substitutions made to match the human protein sequence. The α1‐3, α5, β2, and γ2s subunits were a generous gift from Neil L. Harrison (Columbia University Medical Center, NY). The α4 subunit was obtained from GenScript (Piscataway, NJ), and the α6 subunit was a generous gift from Robert L. McDonald (Vanderbilt University, TN). All point mutations (listed in Figure 1C) were introduced using the QuikChange Lightening site‐directed mutagenesis kit (Agilent Technologies, Santa Clara, CA) according to the manufacturer's instructions and were confirmed by sequencing (Eurofins MWG Operon, Louisville, KY).
# (§2) Human embryonic kidney cells containing the SV40 T‐antigen (HEK293T) were acquired from American Type Culture Collection (ATCC®, Manassas, VA), catalogue number, CRL3216. HEK293T cells were maintained at 37°C and 5% CO2 in Eagle Minimum Essential Medium (MEM) supplemented with 5% fetal bovine serum (Atlanta Biologicals Inc., Flowery Branch, GA), 40 μM L‐glutamine, 100 U/mL penicillin and 0.1 mM streptomycin. Cells were passaged regularly when they reached 70% confluency using trypsin. Cells were not passaged more than 22 times. New cells were revived from frozen stocks at passage 2‐4. Cells used for in vitro electrophysiology experiments were grown on poly‐D‐lysine‐coated glass coverslips (No.2, VWR, Radnor, PA) and transfected with X‐tremeGENE (Roche Diagnostics, Indianapolis, IN) with the desired receptor subunit cDNAs at a 1:1:1 ratio to express αxβ2γ2s receptors (2 μg total cDNA) and with 0.5 μg green fluorescent protein (GFP) as an expression marker. The γ2s incorporation into receptors was tested with zinc inhibition assays regularly.24 Patch clamp experiments were performed on cells at 24‐72 hours post‐transfection. All experiments were performed at 22°C. Experiments consisted of at least five cells recorded per day from at least two transfections across 3‐4 days to control for cell health and transfection efficiency. At least three cells expressing wild‐type receptors were recorded on days that mutant receptors were tested to provide a time‐matched expression control. All reagents were purchased from Sigma‐Aldrich (St. Louis, MO) unless otherwise stated.
# (§3) Extracellular solution contained 161 mM NaCl, 3 mM KCl, 1 mM MgCl2, 1.5 mM CaCl2, 10 mM HEPES, and 6 mM D‐glucose, adjusted to pH 7.4 with NaOH (320‐330 mOsm). […] The perfusion system was controlled by protocols written in pClamp 9 (Molecular Devices, LLC., Sunnyvale, CA). Whole‐cell currents were recorded at ‐60 mV, filtered at 100 Hz and sampled at 200 Hz with a MultiClamp 700B amplifier (Molecular Devices, LLC) and DigiData 1322A (Molecular Devices, LLC) digitizer. […] Cells were recorded with the midazolam protocol no more than two times to avoid desensitization and incomplete washout or irreversible modulation.
# (§4) Recordings were analyzed using MATLAB (Math Works, Inc., Natick, MA). […] The maximum peak current, EC50 and Hill coefficient were estimated for assays from each cell. When Hill parameters are estimated from whole‐cell recordings, the changes in the parameters across receptor conditions can be ascribed to the following changes in receptor physiology. Changes in maximum current can be due to changes in the single‐channel conductance or the rate of desensitization. Changes in cell surface receptor expression can cause minor changes in maximum current, but are unlikely to occur in the time course of our experimental protocol. […] More often minor changes in the Hill coefficient are attributed to the altered homogeneity in the receptor population expressed by the HEK293T cell. For example, a shallower Hill coefficient could be caused by a shift in the population of receptors from mostly αβγ receptors to a combination of both αβ and αβγ receptors.
# [2] = target: T2, α1(T163P)β2γ2 GABAA receptor (Homo sapiens, UniProt P14867+P18507+P47870, T190P)
# T2 construct: expressed in transfected cells; host or cells: HEK293T
# Text: as §1, §2, §3, §4
# [3] = target: T3, α3(S230I)β2γ2 GABAA receptor (Homo sapiens, UniProt P18507+P34903+P47870, S258I)
# T3 construct: expressed in transfected cells; host or cells: HEK293T
# Text: as §1, §2, §3, §4
# [4] = target: T4, α5(S209I)β2γ2 GABAA receptor (Homo sapiens, UniProt P18507+P31644+P47870, S240I)
# T4 construct: expressed in transfected cells; host or cells: HEK293T
# Text: as §1, §2, §3, §4
# [5] = target: T5, α1(H102R)β2γ2 GABAA receptor (Homo sapiens, UniProt P14867+P18507+P47870, H129R)
# T5 construct: expressed in transfected cells; host or cells: HEK293T
# Text: as §1, §2, §3, §4
# [6] = target: T6, α5β2γ2 GABAA receptor (Homo sapiens, UniProt P18507+P31644+P47870)
# T6 construct: expressed in transfected cells; host or cells: HEK293T
# Text: as §1, §2, §3, §4
# [7] = target: T7, α6β2γ2 GABAA receptor (Homo sapiens, UniProt P18507+P47870+Q16445); details: for Midazolam potentiation (%): α6β2γ2
# T7 construct: expressed in transfected cells; host or cells: HEK293T
# Text: as §1, §2, §3, §4
# T7 sequence (Q16445 20-453): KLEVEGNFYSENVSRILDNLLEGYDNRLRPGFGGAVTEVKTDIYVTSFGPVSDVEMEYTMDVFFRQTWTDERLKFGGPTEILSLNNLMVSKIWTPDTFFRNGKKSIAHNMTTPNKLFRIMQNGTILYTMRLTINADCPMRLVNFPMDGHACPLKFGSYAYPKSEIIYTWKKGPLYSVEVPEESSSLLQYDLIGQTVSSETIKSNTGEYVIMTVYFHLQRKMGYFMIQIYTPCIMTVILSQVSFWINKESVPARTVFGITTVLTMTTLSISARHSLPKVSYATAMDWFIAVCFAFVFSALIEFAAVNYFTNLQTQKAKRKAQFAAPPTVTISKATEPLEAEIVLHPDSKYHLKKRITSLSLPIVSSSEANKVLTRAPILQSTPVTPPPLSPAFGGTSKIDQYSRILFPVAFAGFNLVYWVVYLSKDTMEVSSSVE
# T7 sequence (P47870 26-474 isoform P47870-1 limits assumed): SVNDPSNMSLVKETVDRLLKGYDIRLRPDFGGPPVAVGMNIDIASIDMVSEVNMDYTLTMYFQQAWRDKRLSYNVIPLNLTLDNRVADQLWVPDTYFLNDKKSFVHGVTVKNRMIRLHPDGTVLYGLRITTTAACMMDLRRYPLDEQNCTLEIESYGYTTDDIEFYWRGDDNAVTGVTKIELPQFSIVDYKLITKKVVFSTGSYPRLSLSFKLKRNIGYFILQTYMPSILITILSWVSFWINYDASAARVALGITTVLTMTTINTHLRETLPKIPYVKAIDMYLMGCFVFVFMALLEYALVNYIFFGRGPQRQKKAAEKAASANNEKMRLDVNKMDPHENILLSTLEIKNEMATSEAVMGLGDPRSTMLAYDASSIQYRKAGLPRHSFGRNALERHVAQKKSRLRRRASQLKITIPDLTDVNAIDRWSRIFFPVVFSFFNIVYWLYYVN
# T7 sequence (P18507 40-467 isoform P18507-1 limits assumed): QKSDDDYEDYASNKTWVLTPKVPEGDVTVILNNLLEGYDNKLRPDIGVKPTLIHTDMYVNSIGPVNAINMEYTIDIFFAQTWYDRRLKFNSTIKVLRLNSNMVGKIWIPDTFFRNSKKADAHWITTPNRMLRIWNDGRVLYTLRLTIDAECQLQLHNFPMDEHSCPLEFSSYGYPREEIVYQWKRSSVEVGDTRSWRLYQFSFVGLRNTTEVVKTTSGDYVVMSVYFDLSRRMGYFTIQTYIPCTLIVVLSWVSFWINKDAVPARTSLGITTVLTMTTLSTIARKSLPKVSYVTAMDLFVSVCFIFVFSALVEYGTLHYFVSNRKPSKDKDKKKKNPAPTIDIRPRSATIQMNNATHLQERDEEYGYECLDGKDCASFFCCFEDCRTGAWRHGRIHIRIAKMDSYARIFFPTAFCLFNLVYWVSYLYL
# T1 sequence (P34903 29-492): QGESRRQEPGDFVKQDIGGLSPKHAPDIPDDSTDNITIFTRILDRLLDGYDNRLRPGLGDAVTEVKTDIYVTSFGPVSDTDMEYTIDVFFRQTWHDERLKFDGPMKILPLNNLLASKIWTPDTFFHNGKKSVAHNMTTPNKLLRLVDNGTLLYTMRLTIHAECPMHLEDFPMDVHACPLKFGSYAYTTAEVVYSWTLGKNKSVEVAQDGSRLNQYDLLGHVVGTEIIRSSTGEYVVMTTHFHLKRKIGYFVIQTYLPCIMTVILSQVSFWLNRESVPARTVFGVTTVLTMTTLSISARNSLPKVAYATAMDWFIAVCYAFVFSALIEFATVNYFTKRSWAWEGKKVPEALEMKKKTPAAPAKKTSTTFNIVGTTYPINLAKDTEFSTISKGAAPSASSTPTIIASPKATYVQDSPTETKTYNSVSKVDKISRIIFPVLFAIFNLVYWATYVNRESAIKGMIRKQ
# T1 sequence (P47870 25-512 limits assumed): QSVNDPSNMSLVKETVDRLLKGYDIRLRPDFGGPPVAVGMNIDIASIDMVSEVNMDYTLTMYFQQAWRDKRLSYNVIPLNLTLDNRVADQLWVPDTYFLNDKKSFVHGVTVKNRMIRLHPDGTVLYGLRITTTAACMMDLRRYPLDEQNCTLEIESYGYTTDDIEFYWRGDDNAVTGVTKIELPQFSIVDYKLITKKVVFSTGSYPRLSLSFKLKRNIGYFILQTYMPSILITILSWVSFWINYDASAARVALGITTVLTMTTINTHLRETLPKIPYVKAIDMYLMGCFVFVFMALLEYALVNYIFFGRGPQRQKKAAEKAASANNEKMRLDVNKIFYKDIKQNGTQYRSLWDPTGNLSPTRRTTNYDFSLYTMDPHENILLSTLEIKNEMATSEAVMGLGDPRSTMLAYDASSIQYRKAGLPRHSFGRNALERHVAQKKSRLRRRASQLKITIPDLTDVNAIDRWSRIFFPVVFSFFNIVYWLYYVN
# T1 sequence (P18507 40-467 isoform P18507-1 limits assumed): as the sequence (P18507 40-467 isoform P18507-1 limits assumed) above
# T5 sequence (P14867 28-456 H129R): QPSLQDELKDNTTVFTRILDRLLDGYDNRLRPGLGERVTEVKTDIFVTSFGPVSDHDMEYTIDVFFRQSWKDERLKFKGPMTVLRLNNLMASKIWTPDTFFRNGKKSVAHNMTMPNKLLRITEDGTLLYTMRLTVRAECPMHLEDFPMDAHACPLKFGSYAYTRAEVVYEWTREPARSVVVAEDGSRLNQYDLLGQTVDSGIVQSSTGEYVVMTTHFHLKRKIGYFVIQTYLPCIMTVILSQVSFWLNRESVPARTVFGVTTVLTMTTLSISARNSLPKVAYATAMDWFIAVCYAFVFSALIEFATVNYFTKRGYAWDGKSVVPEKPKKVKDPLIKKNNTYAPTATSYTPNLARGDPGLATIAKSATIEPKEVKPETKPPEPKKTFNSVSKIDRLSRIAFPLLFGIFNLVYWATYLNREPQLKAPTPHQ
# T5 sequence (P47870 25-512 limits assumed): as the sequence (P47870 25-512 limits assumed) above
# T5 sequence (P18507 40-467 isoform P18507-1 limits assumed, stated change not applied): as the sequence (P18507 40-467 isoform P18507-1 limits assumed) above
# T6 sequence (P31644 32-462): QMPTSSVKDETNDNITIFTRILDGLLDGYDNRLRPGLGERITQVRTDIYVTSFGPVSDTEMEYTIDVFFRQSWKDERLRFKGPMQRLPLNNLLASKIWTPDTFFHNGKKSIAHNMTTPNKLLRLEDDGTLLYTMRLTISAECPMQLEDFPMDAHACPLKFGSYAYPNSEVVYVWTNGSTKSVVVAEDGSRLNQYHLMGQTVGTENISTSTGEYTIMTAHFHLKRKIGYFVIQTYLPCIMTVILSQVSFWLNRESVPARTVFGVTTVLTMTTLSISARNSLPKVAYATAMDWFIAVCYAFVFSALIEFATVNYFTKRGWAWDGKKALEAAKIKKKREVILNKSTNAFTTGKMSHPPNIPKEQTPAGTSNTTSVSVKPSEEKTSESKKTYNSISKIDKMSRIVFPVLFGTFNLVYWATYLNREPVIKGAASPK
# T6 sequence (P47870 26-474 isoform P47870-1 limits assumed): as the sequence (P47870 26-474 isoform P47870-1 limits assumed) above
# T6 sequence (P18507 40-467 isoform P18507-1 limits assumed): as the sequence (P18507 40-467 isoform P18507-1 limits assumed) above
# T3 sequence (P34903 29-492 S258I): as the sequence (P34903 29-492) above, with S230I counted along it
# T3 sequence (P47870 25-512 limits assumed): as the sequence (P47870 25-512 limits assumed) above
# T3 sequence (P18507 40-467 isoform P18507-1 limits assumed, stated change not applied): as the sequence (P18507 40-467 isoform P18507-1 limits assumed) above
# T4 sequence (P31644 32-462 S240I): as the sequence (P31644 32-462) above, with S209I counted along it
# T4 sequence (P47870 26-474 isoform P47870-1 limits assumed, stated change not applied): as the sequence (P47870 26-474 isoform P47870-1 limits assumed) above
# T4 sequence (P18507 40-467 isoform P18507-1 limits assumed, stated change not applied): as the sequence (P18507 40-467 isoform P18507-1 limits assumed) above
# T2 sequence (P14867 28-456 T190P): as the sequence (P14867 28-456 H129R) above, with R102H, T163P counted along it
# T2 sequence (P47870 25-512 limits assumed): as the sequence (P47870 25-512 limits assumed) above
# T2 sequence (P18507 40-467 isoform P18507-1 limits assumed, stated change not applied): as the sequence (P18507 40-467 isoform P18507-1 limits assumed) above
smiles,measurement,setting,value
Cc1ncc2n1-c1ccc(Cl)cc1C(c1ccccc1F)=NC2 [midazolam],Midazolam potentiation (%),[1]; 10 nM MDZ + EC10 GABA,37.98 ± 5.40%
same,Midazolam potentiation (%),[1]; 50 nM MDZ + EC10 GABA,132.92 ± 12.09%
same,Midazolam potentiation (%),[1]; 100 nM MDZ + EC10 GABA,221.10 ± 19.12%
same,Midazolam potentiation (%),[1]; 500 nM MDZ + EC10 GABA,279.18 ± 24.71%
same,Midazolam potentiation (%),[1]; 1000 nM MDZ + EC10 GABA,281.17 ± 24.73%
same,EC50,"[1]; EC50 (nM), midazolam potentiation of EC10 GABA",46.4 nM
same,Max potentiation (%),"[1]; Hill fit, midazolam 10-1000 nM + EC10 GABA",267.8 ± 20.3%
same,Hill coefficient,[1]; midazolam Hill fit,1.503 ± 0.117
same,EC50,[2],61.1 ± 3.72 nM
same,Midazolam potentiation (%),"[2]; 10 nM MDZ + EC10 GABA, α1(T163P)",14.19 ± 4.15%
same,Midazolam potentiation (%),"[2]; 50 nM MDZ + EC10 GABA, α1(T163P)",49.96 ± 8.44%
same,Midazolam potentiation (%),"[2]; 100 nM MDZ + EC10 GABA, α1(T163P)",96.68 ± 15.00%
same,Midazolam potentiation (%),"[2]; 500 nM MDZ + EC10 GABA, α1(T163P)",124.27 ± 18.98%
same,Midazolam potentiation (%),"[2]; 1000 nM MDZ + EC10 GABA, α1(T163P)",123.00 ± 18.99%
same,Max potentiation (%),"[2]; α1(T163P), Hill fit, midazolam 10-1000 nM + EC10 GABA",127.7 ± 16.0 %
same,Hill coefficient,"[2]; α1(T163P), midazolam Hill fit",2.113 ± 0.154
same,Midazolam potentiation (%),"[3]; 10 nM MDZ + EC10 GABA, α3(S230I)",37.59 ± 4.12%
same,Midazolam potentiation (%),"[3]; 50 nM MDZ + EC10 GABA, α3(S230I)",139.86 ± 12.63%
same,Midazolam potentiation (%),"[3]; 100 nM MDZ + EC10 GABA, α3(S230I)",280.95 ± 24.73%
same,Midazolam potentiation (%),"[3]; 500 nM MDZ + EC10 GABA, α3(S230I)",413.27 ±37.70%
same,Midazolam potentiation (%),"[3]; 1000 nM MDZ + EC10 GABA, α3(S230I)",428.92 ± 38.09%
same,EC50,"[3]; EC50 (nM), α3(S230I), midazolam potentiation of EC10 GABA",73.6 nM
same,enhancement of maximum midazolam potentiation relative to wildtype,[3]; α3(S230I) vs α3β2γ2,approximately 63%
same,Max potentiation (%),"[3]; α3(S230I), Hill fit, midazolam 10-1000 nM + EC10 GABA",436.0 ± 39.4%
same,Hill coefficient,"[3]; α3(S230I), midazolam Hill fit",1.655 ± 0.061
same,EC50,[4],65.4 ± 2.76 nM
same,Midazolam potentiation (%),"[4]; 10 nM MDZ + EC10 GABA, α5(S209I)",15.95 ± 6.58%
same,Midazolam potentiation (%),"[4]; 50 nM MDZ + EC10 GABA, α5(S209I)",62.43 ± 11.51%
same,Midazolam potentiation (%),"[4]; 100 nM MDZ + EC10 GABA, α5(S209I)",127.16 ± 19.87%
same,Midazolam potentiation (%),"[4]; 500 nM MDZ + EC10 GABA, α5(S209I)",168.94 ± 23.17%
same,Midazolam potentiation (%),"[4]; 1000 nM MDZ + EC10 GABA, α5(S209I)",170.92 ± 25.92%
same,increase of maximum midazolam potentiation relative to wildtype,[4]; α5(S209I) vs α5β2γ2,approximately 63%
same,Max potentiation (%),"[4]; α5(S209I), Hill fit, midazolam 10-1000 nM + EC10 GABA",175.1 ± 26.6%
same,Hill coefficient,"[4]; α5(S209I), midazolam Hill fit",2.232 ± 0.334
same,responsiveness to midazolam potentiation,[5],abolished the ability of receptors to respond to midazolam potentiation
same,Midazolam potentiation (%),[5]; 10 nM MDZ + EC10 GABA,8.10 ± 3.48%
same,Midazolam potentiation (%),[5]; 50 nM MDZ + EC10 GABA,13.07 ± 4.69%
same,Midazolam potentiation (%),[5]; 100 nM MDZ + EC10 GABA,16.99 ± 4.42%
same,Midazolam potentiation (%),[5]; 500 nM MDZ + EC10 GABA,26.78 ± 5.31%
same,Midazolam potentiation (%),[5]; 1000 nM MDZ + EC10 GABA,28.87 ± 6.18%
same,EC50,[6],52.8 ± 3.48 nM
same,Midazolam potentiation (%),"[6]; 10 nM MDZ + EC10 GABA, α5β2γ2",20.47 ± 10.62%
same,Midazolam potentiation (%),"[6]; 50 nM MDZ + EC10 GABA, α5β2γ2",63.82 ± 19.54%
same,Midazolam potentiation (%),"[6]; 100 nM MDZ + EC10 GABA, α5β2γ2",113.29 ± 28.44%
same,Midazolam potentiation (%),"[6]; 500 nM MDZ + EC10 GABA, α5β2γ2",130.90 ± 29.52%
same,Midazolam potentiation (%),"[6]; 1000 nM MDZ + EC10 GABA, α5β2γ2",123.12 ± 26.08%
same,Max potentiation (%),"[6]; α5β2γ2, Hill fit, midazolam 10-1000 nM + EC10 GABA",107.9 ± 20.3%
same,Hill coefficient,"[6]; α5β2γ2, midazolam Hill fit",2.632 ± 0.329
same,Midazolam potentiation (%),[7]; 10 nM MDZ + EC10 GABA,14.66 ± 3.92%
same,Midazolam potentiation (%),[7]; 50 nM MDZ + EC10 GABA,14.55 ± 3.86%
same,Midazolam potentiation (%),[7]; 100 nM MDZ + EC10 GABA,14.58 ± 4.87%
same,Midazolam potentiation (%),[7]; 500 nM MDZ + EC10 GABA,11.15 ± 6.25%
same,Midazolam potentiation (%),[7]; 1000 nM MDZ + EC10 GABA,23.34 ± 4.23%
same,responsiveness to midazolam potentiation,[7]; wildtype α6β2γ2,no notable midazolam potentiation
